Assay results: US5118669A, “Peptides and intermediates therefor useful as antiallergic agents, vasodilators and immunoregulators” (Hitachi Chemical Co., Ltd., priority 1989, dated 1992)

Assays:
[1] = system: intraperitoneal mast cells of the rats; test: Inhibitory activity on histamine release from passively sensitized rat mast cells; format: cell-based; settings: for inhibitory activity on histamine release: at a concentration of 10^-5 M or higher, FIG. 5-7; for potency of histamine release inhibition compared with H-Asp-Ser-Asp-Pro-Arg-OH: versus comparative drug H-Asp-Ser-Asp-Pro-Arg-OH; for potency of histamine release inhibition compared with cromoglycate: versus cromoglycate
Description: Male Wistar rats weighing 300-350 g were passively sensitized, and intraperitoneal mast cells of the rats were employed for the test. Rat antiserum used in the passive sensitization was prepared in accordance with the method of Mota [Immunology, 7, p. 681 (1964)] and the method of Hamaoka [J. Immunology, 113, p. 958 (1974)]. Male Wistar rats (weighing 200-250 g) each were injected ovalbumin (10 mg/kg) in a volume of 5 ml/kg intramuscularly on both thighs and simultaneously 2×10^10 cells of killed Bordetella pertussis were intraperitoneally administered to immunize the animal. Blood was drawn from the animal under ether anesthesia via the abdominal aorta on day 12 of the initial sensitization,from which antiserum was separated. The antiserum was lyophilized and stored at -20° C. Titer of the antiserum was assayed by the 48-hour rat PCA reaction. […] The anti-albumin IgE serum of the rat was two fold diluted, and 1 ml of the diluted serum was intraperitoneally administered to sensitize the animal. The rat was killed by blooding 48 hours after the sensitization, and 15 ml of a phosphate buffered saline (NaCl 8 g, KCl 0.2 g, Na2 HPO4.12H2 O 2.88 g, KH2 PO4 0.2 g, EDTA.2Na 0.2 g and bovine serum albumin 1 g, dissolved in purified water to make 1 liter, pH 7.4 (called PBS(-) hereinbelow) was intraperitoneally injected. The rat was then given light abdominal massage for about 2 min. and subjected to laparotomy to collect cells in the abdominal cavity. The cell suspension was centrifuged (1,000 rpm, 10 min.) and then resuspended in PBS(-). The PBS(-) suspension was overlayered on gum arabic density (specific gravity 1.075) followed by centrifugal separation (2,500 rpm, 10 min.). Deposited cells were washed with PBS(-) and suspended in fresh PBS(+)[a solution in which the EDTA 2Na in PBS(-) is replaced by 0.1 g of CaCl2, called PBS(+)] and adjusted to 1×10^5 cells/ml. The cell suspension was divided into silicone-treated test tubes in a volume of 0.8 ml/tube, which were then preincubated at 37° C. for 10 min. In the cell suspension-containing test tube was placed 0.1 ml of a test solution from various solutions diluted with PBS(+) followed by incubation at 37° C. for 15 min. To the test tube was then added 0.1 ml of a mixed solution of ovalbumin antigen (final concentration 1 mg/ml) and phosphatidyl-L-serine (final concentration 100 μm/ml) followed by incubation for additional 15 min. to release histamine. For cromoglycate, one of the comparative drugs, the drug was added 30 sec. prior to the addition of the antigen, and incubation was then made for additional 15 min. The reaction was terminated by addition of 1 ml of ice-cooled PBS(+), and the reaction mixture was centrifuged at 2,500 rpm for 10 min. To 2 ml of the supernatant was added 1 ml of a 4% solution of perchloric acid, and the mixture was assayed for free histamine. For the assay of total histamine, a sample was prepared by placing 0.8 ml of a suspension of untreated mast cells in boiling water for 10 min. followed by addition of 4% perchloric acid.
Amount of histamine in the sample was assayed by fluorimetry, and percent histamine release (%) was calculated by the equation [formula]

[2] = system: thoracic aorta of male rabbits contracted with potassium chloride; test: Vasodilating action on aortic spiral strip contracted with potassium chloride; set-up: species or system rabbit; settings: potassium chloride contraction
Description: (§1) The thoracic aorta of male rabbits weighing 2.5-3 kg was excised and aortic specimens of spiral strip 25-30 mm in length were prepared. […] The specimen was cumulatively administered with H-Asp-Gly-Lys-OH, H Ser-Asp-Gly-Lys-OH, or H-Asp-Ser-Asp-Gly-Lys-OH or H-Ala-Asp-Ser-Asp-Gly-Lys-OH, and relaxation reaction of the blood vessel was observed. As comparative drug were employed nitroprusside (sodium salt) and verapamil.

[3] = system: lymphocytes (mononuclear cells from blood of a healthy adult); test: Blast formation of lymphocytes stimulated with various lectins (3H-thymidine uptake); format: cell-based, human (healthy adult); settings: for uptake of 3H-thymine by the lymphocytes stimulated with a lectin: particularly Con-A; for uptake of 3H-thymine by the lymphocytes stimulated with a lectin / influence upon uptake of 3H-thymine by lymphocytes in the absence of a mitogen: summary of Tables 3-6; for influence upon uptake of 3H-thymine by lymphocytes in the absence of a mitogen: no mitogen
Description: Mononuclear cells were collected by the density centrifugal method from blood of a healthy adult drawn in the presence of heparin and suspended in an RPMI-1640 culture medium (manufactured by Gibco) containing 10% by volume of bovine fetus serum (called FBS, manufactured by Dainihon Seiyaku). The suspension, adjusted to a concentration of 1×10^6 cells/ml, was divided into a 96-well Falcon microplate (manufactured by Becton Dickinson) in a volume of 100 μl/well. Then, a lectin, 1 μg/ml of PHA (phytohemagglutinin), 10 μg/ml of Con-A (concanavalin A) or 15 μg/ml of PWM (pokeweed mitogen) and one of the captioned peptides at a predetermined concentration were added followed by addition of a 10% FBS containing RPMI-1640 medium to a final liquid volume of 200 μl. Cultivation was made in a 5% by volume CO2 incubator at 37° C. for 72 hours, and 24 hours before completion of the cultivation 5 μCi of ^3 H-thymidine was added. The cells were recovered by a cell harvester (manufactured by Bio-Lab), and uptake of the ^3 H-thymidine was measured by a scintillation counter. Results of the measurement are shown in Table 3-Table 6 wherein figures indicate mean count (cpm)±standard error.

[4] = system: thoracic aorta of male rabbits contracted with norepinephrine; test: Vasodilating action on aortic spiral strip contracted with norepinephrine; set-up: species or system rabbit; settings: norepinephrine contraction
Description: as §1

[5] = system: IL-1; test: Productivity of humoral factors by lymphocytes: IL-1; format: cell-based, human (healthy adult); settings: for IL-1: cultivation for a week, control 7.1; for production of IL-1: summary of Table 7
Description: (§2) Mononuclear cells separated by the density centrifugal method from blood of a healthy adult drawn in the presence of heparin were suspended in an RPMI-1640 culture medium containing 10% by volume of FBS. The suspension was divided into culture tubes (Falcon 2054) each at a concentration of 1×10^6 cells/ml, to which the captioned peptides were respectively added. Cultivation was made in an incubator for a week. After completion of the cultivation, the culture was centrifuged (1,500 rpm, 10 min.), and the supernatant collected and assayed for humoral factors. Interleukin 1 (IL-1) and tumor-nectrotizing factors were measured, respectively by a IL-1 radioimmunoassay kit (manufactured by Amersham International) and a TNF radioimmunoassay kit (manufactured by Medgenix). Measurement of interleukin 6 (IL-6) was made by the enzyme immunoassay method (ELISA) using IL-6 antibody (manufactured by Genzyme). Results of the measurements are shown in Table 7 wherein figures represent mean value±standard error.

[6] = system: IL-6; test: Productivity of humoral factors by lymphocytes: IL-6; format: cell-based, human (healthy adult); settings: for IL-6: cultivation for a week, control 270; for production of IL-6: summary of Table 7
Description: as §2

[7] = system: TNF; test: Productivity of humoral factors by lymphocytes: TNF; format: cell-based, human (healthy adult); settings: for TNF: cultivation for a week, control 2,020; for production of TNF: summary of Table 7
Description: as §2

[8] = Con-A (10 μg/ml), peptide 10^-6 M, control 37,800
[9] = Con-A (10 μg/ml), peptide 10^-8 M, control 37,800
[10] = PHA (1 μg/ml), peptide 10^-6 M, control 69,600
[11] = PHA (1 μg/ml), peptide 10^-8 M, control 69,600
[12] = PWM (15 μg/ml), peptide 10^-6 M, control 13,600
[13] = PWM (15 μg/ml), peptide 10^-8 M, control 13,600
[14] = mitogen None, peptide 10^-6 M, control 1,090
[15] = mitogen None, peptide 10^-8 M, control 1,090

Compound	Percent relaxation ([2]; compound 10^-4 M)	Percent relaxation ([2]; compound 10^-5 M)	Percent relaxation ([2]; compound 10^-6 M)	Percent relaxation ([2]; compound 10^-7 M)	Percent relaxation ([2]; compound 10^-8 M)	Uptake of 3H-thymidine by lymphocytes [3, 8]	Uptake of 3H-thymidine by lymphocytes [3, 9]	Uptake of 3H-thymidine by lymphocytes [3, 10]	Uptake of 3H-thymidine by lymphocytes [3, 11]	Uptake of 3H-thymidine by lymphocytes [3, 12]	Uptake of 3H-thymidine by lymphocytes [3, 13]	uptake of 3H-thymine by the lymphocytes stimulated with a lectin [3]	Uptake of 3H-thymidine by lymphocytes [3, 14]	Uptake of 3H-thymidine by lymphocytes [3, 15]	influence upon uptake of 3H-thymine by lymphocytes in the absence of a mitogen [3]	Percent relaxation ([4]; compound 10^-4 M)	Percent relaxation ([4]; compound 10^-5 M)	Percent relaxation ([4]; compound 10^-6 M)	Percent relaxation ([4]; compound 10^-7 M)	Percent relaxation ([4]; compound 10^-8 M)	other results
H-Ser-Asp-Gly-Lys-OH (H-SDGK-OH) [tetrapeptide]	18.6%	7.2%	0%	0%	0%	24,000 cpm	24,200 cpm	59,000 cpm	62,100 cpm	9,000 cpm	10,000 cpm	strongly inhibit	911 cpm	1,436 cpm	little influence	52.6%	25.0%	17.7%	9.1%	1.7%	inhibitory activity on histamine release [1]: clear inhibitory activity; potency of histamine release inhibition compared with H-Asp-Ser-Asp-Pro-Arg-OH [1]: higher; potency of histamine release inhibition compared with cromoglycate [1]: nearly equal to or higher; IL-1 ([5]; additive 10^-6 M): 11.2 fM/ml; IL-1 ([5]; additive 10^-8 M): 10.7 fM/ml; production of IL-1 [5]: promote production; IL-6 ([6]; additive 10^-6 M): 280 U/ml; IL-6 ([6]; additive 10^-8 M): 350 U/ml; production of IL-6 [6]: promote production; TNF ([7]; additive 10^-6 M): 4,260 pg/ml; TNF ([7]; additive 10^-8 M): 3,620 pg/ml; production of TNF [7]: promote production
H-DSDGK-OH [DSDGK, H-Asp-Ser-Asp-Gly-Lys-OH]	–	–	–	–	–	19,300 cpm	17,900 cpm	56,900 cpm	62,000 cpm	13,000 cpm	9,550 cpm	strongly inhibit	877 cpm	887 cpm	little influence	–	–	–	–	–	IL-1 ([5]; additive 10^-6 M): 8.3 fM/ml; IL-1 ([5]; additive 10^-8 M): 7.3 fM/ml; production of IL-1 [5]: promote production; IL-6 ([6]; additive 10^-6 M): 400 U/ml; IL-6 ([6]; additive 10^-8 M): 280 U/ml; production of IL-6 [6]: promote production; TNF ([7]; additive 10^-6 M): 4,270 pg/ml; TNF ([7]; additive 10^-8 M): 4,100 pg/ml; production of TNF [7]: promote production
COc1ccc(CCN(C)CCCC(C#N)(c2ccc(OC)c(OC)c2)C(C)C)cc1OC (stereo not drawn) [Verapamil, verapamil, reference compound]	100%	100%	97.1%	68.3%	7.1%	–	–	–	–	–	–	–	–	–	–	68.6%	47.1%	20.6%	4.6%	0%	–
H-ADSDGK-OH [ADSDGK, H-Ala-Asp-Ser-Asp-Gly-Lys-OH]	–	–	–	–	–	21,500 cpm	24,600 cpm	63,000 cpm	64,100 cpm	13,600 cpm	14,500 cpm	strongly inhibit	900 cpm	797 cpm	little influence	–	–	–	–	–	inhibitory activity on histamine release [1]: clear inhibitory activity; potency of histamine release inhibition compared with H-Asp-Ser-Asp-Pro-Arg-OH [1]: higher; potency of histamine release inhibition compared with cromoglycate [1]: nearly equal to or higher; IL-1 ([5]; additive 10^-6 M): 11.2 fM/ml; IL-1 ([5]; additive 10^-8 M): 11.3 fM/ml; production of IL-1 [5]: promote production; IL-6 ([6]; additive 10^-6 M): 270 U/ml; IL-6 ([6]; additive 10^-8 M): 270 U/ml; production of IL-6 [6]: promote production; TNF ([7]; additive 10^-6 M): 3,620 pg/ml; TNF ([7]; additive 10^-8 M): 4,120 pg/ml; production of TNF [7]: promote production
nitroprusside [reference compound]	35.7%	24.3%	11.4%	1.4%	0%	–	–	–	–	–	–	–	–	–	–	98.8%	93.8%	86.0%	59.4%	16.1%	–
